Results: patent publication US10214512B2, “Factor XIA inhibitors” (MERCK SHARP & DOHME CORP., priority 2015, dated 2019)

Each compound was assayed against purified Human plasma Kallikrein (Homo sapiens (Human), UniProt P03952) (assay: Kallikrein Assay). Details: purified Human plasma Kallikrein 0.5 nM; substrate Acetyl-K-P-R-AFC; 50 mM HEPES pH 7.4; Ki from IC50 by Cheng Prusoff.
Assay type: biochemical
Experimental: The effectiveness of a compound of the present invention as an inhibitor of Kallikrein can be determined using a relevant purified serine protease, and an appropriate synthetic substrate. The rate of hydrolysis of the chromogenic or fluorogenic substrate by the relevant serine protease was measured both in the absence and presence of compounds of the present invention. Assays were conducted at rt or at 37° C. […] A decrease in the rate of fluorescence change in the presence of inhibitor is indicative of enzyme inhibition. Such methods are known to one skilled in the art. The results of this assay are expressed as the inhibitory constant, Ki.
Kallikrein determinations were made in 50 mM HEPES buffer at pH 7.4 containing 150 mM NaCl, 5 mM CaCl2, and 0.1% PEG 8000 (polyethylene glycol; Fisher Scientific). Determinations were made using purified Human plasma Kallikrein at a final concentration of 0.5 nM (Enzyme Research Laboratories) and the synthetic substrate, Acetyl-K-P-R-AFC (Sigma # C6608) at a concentration of […].
Times required to achieve equilibration between enzyme and inhibitor were determined in control experiments. […] IC50 was determined by inflection point from a four parameter logistic curve fit. Ki was calculated using the Cheng Prusoff equation, Ki=IC50/(1+([S]/Km)).

Sequence of purified Human plasma Kallikrein (P03952 391-638): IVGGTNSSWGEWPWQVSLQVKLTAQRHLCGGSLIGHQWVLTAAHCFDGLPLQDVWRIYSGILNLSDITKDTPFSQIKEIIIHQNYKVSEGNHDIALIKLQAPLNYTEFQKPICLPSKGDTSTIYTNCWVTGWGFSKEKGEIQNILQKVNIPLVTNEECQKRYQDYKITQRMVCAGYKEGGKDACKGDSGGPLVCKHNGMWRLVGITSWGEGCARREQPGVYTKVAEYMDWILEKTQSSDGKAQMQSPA
Sequence of purified Human plasma Kallikrein (P03952 20-390 partner): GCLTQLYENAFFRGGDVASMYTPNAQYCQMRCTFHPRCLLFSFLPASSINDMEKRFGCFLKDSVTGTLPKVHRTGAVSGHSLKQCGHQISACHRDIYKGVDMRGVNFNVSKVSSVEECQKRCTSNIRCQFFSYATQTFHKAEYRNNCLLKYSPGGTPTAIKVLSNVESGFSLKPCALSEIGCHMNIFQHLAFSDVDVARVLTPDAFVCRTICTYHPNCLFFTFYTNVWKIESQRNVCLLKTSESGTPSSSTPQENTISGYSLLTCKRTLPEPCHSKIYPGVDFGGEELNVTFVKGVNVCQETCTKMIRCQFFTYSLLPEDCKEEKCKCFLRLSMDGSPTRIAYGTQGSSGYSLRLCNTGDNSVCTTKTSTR

SMILES	Ki
COC(=O)Nc1ccc2c(c1)NC(=O)CCCCC(c1ccc(-c3cc(Cl)ccc3-n3cc(C(=O)O)nn3)cn1)c1cccc-2c1 (single isomer, unassigned) [Example 92-a, 1-(4-chloro-2-(6-(2^4-((methoxycarbonyl)amino)-4-oxo-3-aza-1(1,3),2(1,2) -dinenzenacyclononaphane-9-yl)pyridin-3-yl)phenyl)-1H-1,2,3-triazole-4-carboxylic acid]	26 nM
COC(=O)Nc1ccc2c(c1)NC(=O)C(C)CCCC(c1cc(OC)c(-c3c(F)ccc(Cl)c3F)c[n+]1[O-])c1cccc-2c1 (single isomer, unassigned) [Example 88-d, 5-(3-Chloro-2,6-difluorophenyl)-4-methoxy-2-(2^4-((methoxycarbonyl)amino)-5-methyl-4-oxo-3-aza-1(1,3),2(1,2) -dibenzenacyclononaphane-9-yl)pyridine 1-oxide]	5.21 nM
COC(=O)Nc1ccc2c(c1)NC(=O)CCCC[C@H](c1ccc(-c3c(F)cccc3OC(F)F)c[n+]1[O-])c1nc-2c(C)[nH]1 (single isomer, unassigned) [Example 126]	2.03 nM
COC(=O)Nc1ccc2c(c1)NC(=O)[C@H](C)CCC[C@H](c1ccc(-c3cc(Cl)ccc3OC(F)(F)F)c[n+]1[O-])c1cccc-2c1 (single isomer, unassigned) [Example 77-a]	1.69 nM
COC(=O)Nc1ccc2c(c1)NC(=O)[C@@H](C)CCC[C@H](c1ccc(-c3cc(Cl)ccc3OC(F)(F)F)c[n+]1[O-])c1cccc-2c1 (single isomer, unassigned) [Example 77-b]	17.3 nM
COC(=O)Nc1ccc2c(c1)NC(=O)C(C)CCCC(c1ccc(-c3c(F)ccc(Cl)c3F)cn1)c1cc-2ccn1 (single isomer, unassigned) [Example 95-a, Methyl (9-(5-(3-chloro-2,6-difluorophenyl)pyridin-2-yl)-5-methyl-4-oxo-3-aza-1(4,2)-pyridina-2(1,2)-benzenacyclononaphane-2^4-yl)carbamate]	11.7 nM
COC(=O)Nc1ccc2c(c1)NC(=O)C(C)CCCC(c1cc(OC)c(-c3c(F)ccc(Cl)c3F)c[n+]1[O-])c1cccc-2c1 (single isomer, unassigned) [Example 88-b, 5-(3-Chloro-2,6-difluorophenyl)-4-methoxy-2-(2^4-((methoxycarbonyl)amino)-5-methyl-4-oxo-3-aza-1(1,3),2(1,2) -dibenzenacyclononaphane-9-yl)pyridine 1-oxide]	2.67 nM
COC(=O)Nc1ccc2c(c1)NC(=O)CCCC[C@H](c1ccc(-c3cc(Cl)ccc3-n3cc(C4CC4)nn3)c[n+]1[O-])c1cccc-2c1 (single isomer, unassigned) [Example 38]	0.95 nM
COC(=O)Nc1ccc2c(c1)NC(=O)CCCC[C@H](c1ccc(-c3c(F)cccc3-n3cc(C(F)(F)F)cn3)c[n+]1[O-])c1nc-2c(C)[nH]1 (single isomer, unassigned) [Example 137]	418 nM
COC(=O)Nc1ccc2c(c1)NC(=O)C(C)CCCC(c1ccc(-c3c(F)ccc(Cl)c3F)c[n+]1[O-])c1nc-2c[nH]1 (single isomer, unassigned) [Example 114-a, (Z)-5-(3-chloro-2,6-difluorophenyl)-2-(2^4-((methoxycarbonyl)amino)-5-methyl-4-oxo-1^1H-3-aza-1(4,2)-imidazola-2(1,2) -benzenacyclononaphane-9-yl)pyridine 1-oxide]	0.24 nM
COC(=O)Nc1ccc2c(c1)NC(=O)CCCC[C@H](c1ccc(-c3c(F)ccc(Cl)c3F)c[n+]1[O-])c1ccc(F)c-2c1 (single isomer, unassigned) [Example 68]	2.09 nM
COC(=O)Nc1ccc2c(c1)NC(=O)CCCC[C@H](c1ccc(-c3c(OC(F)F)ccc(F)c3F)c[n+]1[O-])c1nc-2c(C)[nH]1 (single isomer, unassigned) [Example 130]	0.66 nM
COC(=O)Nc1ccc2c(c1)NC(=O)C(C)CCCC(c1ccc(-c3c(F)ccc(Cl)c3F)c[n+]1[O-])c1nc-2c[nH]1 (single isomer, unassigned) [Example 114-c, (Z)-5-(3-chloro-2,6-difluorophenyl)-2-(2^4-((methoxycarbonyl)amino)-5-methyl-4-oxo-1^1H-3-aza-1(4,2)-imidazola-2(1,2) -benzenacyclononaphane-9-yl)pyridine 1-oxide]	0.78 nM
COC(=O)Nc1ccc2c(c1)NC(=O)CCCC[C@H](c1ccc(-c3c(F)cccc3-n3cc(C(F)(F)F)cn3)c[n+]1[O-])c1nc-2c[nH]1 (single isomer, unassigned) [Example 115]	331 nM
COC(=O)Nc1ccc2c(c1)NC(=O)CCCCC(c1ccc(-c3c(F)ccc(Cl)c3F)c[n+]1[O-])c1ccnc-2c1 (single isomer, unassigned) [Example 93-a, 5-(3-Chloro-2,6-difluorophenyl)-2-(2^4-((methoxycarbonyl)amino)-4-oxo-3-aza-1 (2,4)-pyridina-2(1,2)-benzenacyclononaphane-9-yl)pyridine 1-oxide]	1.92 nM
COC(=O)Nc1ccc2c(c1)NC(=O)CCCC[C@H](c1ccc(-c3cc(Cl)ccc3-c3cnco3)c[n+]1[O-])c1cccc-2c1 (single isomer, unassigned) [Example 35]	0.7 nM
COC(=O)Nc1ccc2c(c1)NC(=O)CCCC[C@H](c1ccc(-c3cc(Cl)ccc3-n3cnnn3)c[n+]1[O-])c1cc-2ncc1F (single isomer, unassigned) [Example 71]	0.33 nM
COC(=O)Nc1ccc2c(c1)NC(=O)CCCC[C@H](c1ccc(-c3c(F)cccc3OC(F)F)c[n+]1[O-])c1cccc-2c1 (single isomer, unassigned) [Example 34]	5.01 nM

Results, then the compound that gave them:

Ki	SMILES
1.1 nM	COC(=O)Nc1ccc2c(c1)NC(=O)[C@@H](C)CCC[C@H](c1ccc(-c3c(F)cccc3F)c[n+]1[O-])c1nc-2c(C2CC2)[nH]1 (single isomer, unassigned) [Example 145-c]
0.71 nM	CCc1[nH]c2nc1-c1ccc(NC(=O)OC)cc1NC(=O)[C@H](C)CCC[C@@H]2c1ccc(-c2c(F)cccc2OC(F)F)c[n+]1[O-] (single isomer, unassigned) [Example 146-a]
0.3 nM	COC(=O)Nc1ccc2c(c1)NC(=O)[C@H](C)CCC[C@H](c1ccc(-c3c(F)cccc3F)c[n+]1[O-])c1nc-2c(C2CC2)[nH]1 (single isomer, unassigned) [Example 145-a]
114 nM	COC(=O)Nc1ccc2c(c1)NC(=O)CC[C@H](C)C[C@H](c1ccc(-c3c(F)cccc3OC(F)F)c[n+]1[O-])c1nc-2c(C)[nH]1 (single isomer, unassigned) [Example 152-b]
2.02 nM	COC(=O)Nc1ccc2c(c1)NC(=O)[C@H](C)CCC[C@H](c1ccc(-c3cc(F)ccc3OC(F)(F)F)c[n+]1[O-])c1nc-2c(C)[nH]1 (single isomer, unassigned) [Example 149-a]
10.8 nM	COC(=O)Nc1ccc2c(c1)NC(=O)CC[C@H](C)C[C@H](c1ccc(-c3c(F)ccc(Cl)c3F)c[n+]1[O-])c1nc-2c(C)[nH]1 (single isomer, unassigned) [Example 151-b]
1.5 nM	COC(=O)Nc1ccc2c(c1)NC(=O)[C@@H](C)CCC[C@H](c1ccc(-c3c(OC(F)F)ccc(F)c3F)c[n+]1[O-])c1nc-2c(C)[nH]1 (single isomer, unassigned) [Example 150-c]
0.51 nM	COC(=O)Nc1ccc2c(c1)NC(=O)[C@H](C)CCC[C@H](c1ccc(-c3c(OC(F)F)ccc(F)c3F)c[n+]1[O-])c1nc-2c(C)[nH]1 (single isomer, unassigned) [Example 150-a]
161 nM	C[C@H]1CCC[C@@H](c2ccc(-c3cc(Cl)ccc3-n3cc(C(F)(F)F)cn3)c[n+]2[O-])c2cccc(c2)-c2c(cnn2C(F)F)NC1=O (single isomer, unassigned) [Example 168-d]
29 nM	COC(=O)Nc1ccc2c(c1)NC(=O)CC[C@@H](C)C[C@@H](c1ccc(-c3c(F)ccc(Cl)c3F)c[n+]1[O-])c1nc-2c(C)[nH]1 (single isomer, unassigned) [Example 151-c]
3.46 nM	CCc1[nH]c2nc1-c1ccc(NC(=O)OC)cc1NC(=O)[C@@H](C)CCC[C@@H]2c1ccc(-c2c(F)cccc2OC(F)F)c[n+]1[O-] (single isomer, unassigned) [Example 146-c]
0.16 nM	COC(=O)Nc1ccc2c(c1)NC(=O)CC[C@@H](C)C[C@H](c1ccc(-c3c(F)ccc(Cl)c3F)c[n+]1[O-])c1nc-2c(C)[nH]1 (single isomer, unassigned) [Example 151-a]
2.76 nM	COC(=O)Nc1ccc2c(c1)NC(=O)CC[C@@H](C)C[C@H](c1ccc(-c3c(F)cccc3OC(F)F)c[n+]1[O-])c1nc-2c(C)[nH]1 (single isomer, unassigned) [Example 152-a]
53.7 nM	COC(=O)Nc1ccc2c(c1)NC(=O)[C@@H](C)CCC[C@@H](c1ccc(-c3cc(F)ccc3OC(F)(F)F)c[n+]1[O-])c1nc-2c(C)[nH]1 (single isomer, unassigned) [Example 149-b]
